Data on five molecules can be found in patent US20150328147A1, “METHOD FOR INTRODUCING BIOLOGICALLY ACTIVE SUBSTANCES INTO THE BRAIN” (BBU-VITA CORP., priority 2012, published 2015).

Read-outs that look alike come from different tables or passages of the source.

Experiment [1] concerns haloperidol catalepsy model.
Excerpt: The criteria of the evaluation: the change in spontaneous motor activity as the sum of movements of the rats in different groupings of the animals, in the “open field” test.
Experiment [2] relates to haloperidol catalepsy model. The conditions noted are these: for re-animation of spontaneous motor activity: nasal 2 × 50 μL after haloperidol i.p., dopamine 10^−2M (0.8 mg/kg), H2O2 10^−5M (34 ng/animal).
Experiment [3] concerns haloperidol catalepsy model. This is another data set of the same source.
Excerpt: The criteria of the evaluation: the change in spontaneous motor activity as the sum of movements of the rats in different groupings of the animals, in the “open field” test. The animal groups: control group: “intact control” (Group I), “haloperidol i.p.” (Group II), “haloperidol i.p.+nasal dopamine” (Group III), and “haloperidol i.p.+nasal L-arginine” in various concentrations (Groups IV and V).
Experiment [4] deals with haloperidol catalepsy model. The conditions noted are these: earlier demonstration (DE 102 48 601); cited from earlier work.
The test system of experiment [5] is sexually mature white rats. In words: Experiment 3: duration of phenobarbital sleep after single or fractionated nasal administration with H2O2. The note with it: phenobarbital 90 mg/kg, H2O2 10^−5M. It counts as in vivo. The text has this:
Experiment 3: The effect of phenobarbital was investigated experimentally on sexually mature white rats, using a nasal administration. The sleep duration conditioned by phenobarbital following nasal administration of phenobarbital was compared against the presence and absence of vaso-active and neuroactive substance. The typical results of an experiment are listed in Tab. 4.

The mark [6] stands for this setting: Experiment 1, haloperidol i.p. 100 mg/kg, without H2O2, nasal dopamine 10^−3M where given, sum of movements, open field.
Where [7] appears, read: Experiment 2, haloperidol i.p. 100 mg/kg, without L-arginine, nasal dopamine 10^−3M where given, sum of movements, open field.
Setting [8] is: with nasal dopamine 10^−3M, haloperidol model.

Turning to `NCCc1ccc(O)c(O)c1` [dopamine], the values for the Spontaneous activity in experiment [1] (setting [6]) and in experiment [3] (setting [7]) were 2 ± 1.7 ^##) and 2.6 ± 1.7 ^##), respectively. Further, the “re-animation of spontaneous motor activity” value in experiment [2] is “did not re-animate the motor activity”.

Turning to `O=C(CCCN1CCC(O)(c2ccc(Cl)cc2)CC1)c1ccc(F)cc1` [haloperidol], the Spontaneous activity in experiment [1] (setting [6]) was 3 ± 3 ^##); in experiment [3] (setting [7]) it was 3.7 ± 3 ^##). Also, the “reduction of spontaneous motor activity” value in experiment [2] (single i.p. haloperidol 0.25 mg/kg, cataleptic response) stood at 85%.

For `OO` [H2O2, hydrogen peroxide], the Spontaneous activity was 1.8 ± 2.2 ^##) in experiment [1] (Experiment 1, haloperidol i.p., nasal H2O2 10^−4M (dopamine 10^−3M in the mixture)) and 3 ± 1.9 ^##) in experiment [1] (Experiment 1, haloperidol i.p., nasal H2O2 10^−5M). Also, the “minimal effective concentration of the endonasal hydrogen peroxide” value in experiment [1] (setting [8]) is 10^−8 to 10^−10 M. Besides, the “re-animation of spontaneous motor activity” value in experiment [2] is recorded as “did not re-animate the motor activity”.

On to `N=C(N)NCCC[C@H](N)C(=O)O` [L-arginine], for which the “reanimation of spontaneous motor activity by L-arginine administered nasally together with dopamine” value in experiment [4] was “able to reanimate spontaneous motor activity”. Moreover, the Spontaneous activity is on record as 6.4 ± 3.4 ^##) in experiment [3] (Experiment 2, haloperidol i.p., nasal L-arginine 10^−3M (dopamine 10^−3M in the mixture)) and 4.8 ± 2.7 ^##) in experiment [3] (Experiment 2, haloperidol i.p., nasal L-arginine 10^−5M). Further, the “minimal effective concentration of the endonasal L-arginine” value in experiment [3] (setting [8]) is recorded as ~10^−7 M.

`CCC1(c2ccccc2)C(=O)NC(=O)NC1=O` [phenobarbital]: the “Duration of the experimental sleep (Minutes following the last administration)” value was found to be 128 ± 11.1 min in experiment [5] (single nasal application of the full dose 18 mg, 2 × 100 μL) and 161 ± 21.1 min in experiment [5] (triple nasal application of partial doses 3 × 6 (mg), interval 60 s).
